In series [1] the target is T1, Androgen Receptor (Homo sapiens, UniProt P10275).
T1 construct: endogenous in cells; host or cells: VCaP cells
T1 sequence (P10275 1-920): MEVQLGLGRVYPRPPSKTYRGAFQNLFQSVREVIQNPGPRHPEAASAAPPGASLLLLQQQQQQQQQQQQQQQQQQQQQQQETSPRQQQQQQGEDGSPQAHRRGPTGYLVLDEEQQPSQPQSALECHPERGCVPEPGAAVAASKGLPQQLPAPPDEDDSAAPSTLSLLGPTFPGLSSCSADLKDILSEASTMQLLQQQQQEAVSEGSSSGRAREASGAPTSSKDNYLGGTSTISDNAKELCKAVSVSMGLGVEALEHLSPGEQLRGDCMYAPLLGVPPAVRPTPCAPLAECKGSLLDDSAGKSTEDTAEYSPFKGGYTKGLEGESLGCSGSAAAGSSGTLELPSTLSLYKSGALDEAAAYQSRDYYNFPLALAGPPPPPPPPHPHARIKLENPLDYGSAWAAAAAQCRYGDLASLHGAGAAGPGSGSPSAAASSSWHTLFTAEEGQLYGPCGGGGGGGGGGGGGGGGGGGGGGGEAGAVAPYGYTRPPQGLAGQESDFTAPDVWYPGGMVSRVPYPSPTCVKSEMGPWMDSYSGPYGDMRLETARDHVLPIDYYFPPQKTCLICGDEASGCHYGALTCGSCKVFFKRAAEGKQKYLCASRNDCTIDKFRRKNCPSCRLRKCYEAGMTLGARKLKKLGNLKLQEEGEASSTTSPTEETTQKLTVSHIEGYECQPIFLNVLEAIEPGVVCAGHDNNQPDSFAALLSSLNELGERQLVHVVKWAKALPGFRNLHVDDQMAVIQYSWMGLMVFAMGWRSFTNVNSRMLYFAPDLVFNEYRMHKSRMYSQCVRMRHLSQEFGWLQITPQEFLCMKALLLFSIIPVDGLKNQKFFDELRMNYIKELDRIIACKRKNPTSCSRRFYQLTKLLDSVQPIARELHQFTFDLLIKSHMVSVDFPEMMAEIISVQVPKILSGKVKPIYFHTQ
The experiment in a line: Androgen Receptor ELISA assay (PathScan AR ELISA) in VCaP cells: AR degradation, Dmax and DC50. The class given is cell-based. Particulars: for Dmax: VCaP, read-out: VCaP Dmax (%); for DC50: read-out: VCaP DC50, concentration that caused 50% Androgen Receptor degradation. The essentials: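 VCaP cells in phenol red-free RPMI with 5% charcoal-stripped FBS were grown at least 3 days, then given compound as 7 half-log doses in 0.1% DMSO with 0.1 nM R1881 for 24 h. Lysates went into a sandwich AR ELISA with TMB read at 450 nm.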

The target of series [2] is T2, Androgen Receptor (Homo sapiens, UniProt P10275+P40337, T878A).
T2 construct: Compounds have been evaluated in this assay in LNCaP and/or VCaP cells utilizing similar protocols; endogenous in cells; host or cells: LNCaP cells
In words: Androgen Receptor ELISA assay (PathScan AR ELISA) in LNCaP cells: AR degradation, Dmax and DC50. The class given is cell-based. In general terms: In an ELISA, binding on a coated surface is turned into a signal by an enzyme label.

Series [3] has as its system LNCaP cells transduced with AR F876L construct. The experiment in a line: Anti-proliferation in LNCaP F876L (CellTiterGlo). The class given is cell-based. Particulars: Charcoal Stripped Serum media, indicated doses for 7 days. The method, then: FIG. 3. Anti-proliferation in LNCaP F876L. […] LNCaP cells transduced with AR F876L construct were cultured in Charcoal Stripped Serum containing media.
4. Anti-Proliferation in LNCaP F876L.
LNCaP cells transduced with AR F876L construct were cultured in Charcoal Stripped Serum containing media. […] CellTiterGlo reagent (Promega) was employed to assess proliferation.
(In ATP-based viability assays light output follows the ATP content of the culture.)

Series [4] addresses T3, AR (Homo sapiens, UniProt P10275+P40337, T878A).
T3 construct: Compounds have been evaluated in this assay in LNCaP and/or VCaP cells utilizing similar protocols; endogenous in cells; host or cells: LNCaP cells
In words: AR degradation of PROTAC is E3 ligase dependent (LNCaP cells). The class given is cell-based. The source says: FIG. 7A and FIG. 7B. AR degradation of PROTAC is E3 ligase dependent.
8. AR Degradation of PROTAC is E3 Ligase Dependent.

The nature of series [5]: PROTAC subcutaneous pharmacokinetics in CD-1 mice. Particulars: male, plasma, CD-1 Mouse, 10 mg/kg SC dose, vehicle ESD-1. The class given is in vivo. On the procedure:
9. PROTAC Prodrug Oral Pharmacokinetics and PROTAC Subcutaneous Phamacokinetics.
Representative Pharmacokinetic Procedure
Male CD-1 mice (6-8 weeks old, weighing 20-30 g, 3 per study) with free access to food and water were administered with the test article at 10 mg/kg either by oral gavage or sub-cutaneous injection in the formulation specified in tables 20 and 21, at 10 mL/kg.
Approximately 0.04 mL blood samples were collected from the dorsal metatarsal vein serially at 0.25, 0.5, 1, 2, 4, 8 and 24 h timepoints; heparin was used as the anticoagulant. The samples were centrifuged at 4000 g for 5 min at 4° C. then stored at −75° C. prior to analysis.
The plasma samples were analysed via an LC/MS/MS method quantitating for unchanged, administered test article, and/or a derivative species as appropriate. WinNonlin (Phoenix™) was used for the pharmacokinetic calculations and modeling, to generate parameters such as Cmax and AUC.

Series [6] concerns VCaP cells. The experiment in a line: VCaP cell proliferation assay (Cell Titer Glo), GI50. The class given is cell-based. The essentials:
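VCaP cells at 7,500/well were androgen-depleted for at least 3 days in phenol red-free RPMI with 5% charcoal-stripped FBS, then dosed with PROTACs plus 0.1 nM R1881. Growth was read by CellTiter Glo luminescence against a baseline taken on the day of dosing, giving GI50.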

In series [7] the test system is C57B6 mouse model. In words: Prostate involution in C57B6 mouse model. Particulars: 12-week old male C57BL/6 mice; IP, QD, 1 and 3 mpk; 10 days. The class given is in vivo. The source says:
FIG. 5. Prostate involution in C57B6 mouse model.
6. Prostate Involution in C57B6 Mouse Model.

Series [8] has as its system VCaP xenograft. In words: Tumor growth inhibition in VCaP xenograft model. Particulars: VCaP cells s.c. in castrated CB17 scid mice; enzalutamide PO, QD, 30 mpk; Example 163 IP, QD, 30, 10 and 3 mpk. The class given is in vivo. The source says:
FIG. 6. Tumor growth inhibition in VCaP xenograft model. VCaP cells were implanted into CB17 scid mice subcutaneously. Once the tumors were palpable, the mice were castrated, leading to temporary tumor stasis.
7. Tumor Growth Inhibition in VCaP Xenograft Model.
VCaP cells were implanted into CB17 scid mice subcutaneously. Once the tumors were palpable, the mice were castrated, leading to temporary tumor stasis.

Entries after “also recorded” stand apart in the source; their conditions may differ. Where two headings read alike, the source gives them in different places. Where only a bound is given, the exact number is not on record here.

We go through 3 compounds from patent US11427548B2 (Arvinas Operations, Inc., priority 2015, dated 2022).

T2 sequence (P10275 whole entry T878A): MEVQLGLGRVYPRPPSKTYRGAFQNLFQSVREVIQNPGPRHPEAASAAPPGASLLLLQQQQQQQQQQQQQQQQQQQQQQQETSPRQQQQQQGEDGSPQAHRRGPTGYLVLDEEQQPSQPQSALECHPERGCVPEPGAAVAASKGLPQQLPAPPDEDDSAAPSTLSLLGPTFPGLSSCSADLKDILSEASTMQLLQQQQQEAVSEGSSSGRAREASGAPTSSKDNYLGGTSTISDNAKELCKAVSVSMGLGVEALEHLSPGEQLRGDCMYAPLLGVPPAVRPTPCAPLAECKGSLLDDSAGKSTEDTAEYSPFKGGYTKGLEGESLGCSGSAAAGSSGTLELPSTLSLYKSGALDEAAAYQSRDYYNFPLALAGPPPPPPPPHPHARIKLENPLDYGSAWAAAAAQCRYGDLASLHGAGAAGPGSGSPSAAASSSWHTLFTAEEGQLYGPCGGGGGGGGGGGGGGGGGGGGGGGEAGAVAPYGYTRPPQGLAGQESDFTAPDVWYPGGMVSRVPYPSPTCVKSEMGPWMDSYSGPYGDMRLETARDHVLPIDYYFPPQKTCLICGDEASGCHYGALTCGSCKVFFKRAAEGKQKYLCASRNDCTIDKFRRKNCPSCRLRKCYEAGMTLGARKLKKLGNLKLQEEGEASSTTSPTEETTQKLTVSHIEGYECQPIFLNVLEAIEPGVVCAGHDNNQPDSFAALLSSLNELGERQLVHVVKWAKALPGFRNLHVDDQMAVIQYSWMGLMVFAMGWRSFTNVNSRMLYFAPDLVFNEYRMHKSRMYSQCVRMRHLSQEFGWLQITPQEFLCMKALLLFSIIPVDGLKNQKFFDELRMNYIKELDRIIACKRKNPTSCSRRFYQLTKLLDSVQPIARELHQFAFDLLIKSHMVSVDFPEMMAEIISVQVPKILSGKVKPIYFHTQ
T2 sequence (P40337 whole entry): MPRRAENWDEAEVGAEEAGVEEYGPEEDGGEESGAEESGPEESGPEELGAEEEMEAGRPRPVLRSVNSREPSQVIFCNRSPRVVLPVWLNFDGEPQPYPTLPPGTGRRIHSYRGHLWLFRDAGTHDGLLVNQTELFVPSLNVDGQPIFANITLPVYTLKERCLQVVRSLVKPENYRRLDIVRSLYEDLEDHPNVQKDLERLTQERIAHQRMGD
T2 sequence (Q15369 whole entry partner): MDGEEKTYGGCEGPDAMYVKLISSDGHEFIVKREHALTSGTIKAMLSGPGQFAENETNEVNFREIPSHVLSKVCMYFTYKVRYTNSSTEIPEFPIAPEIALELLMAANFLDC
T2 sequence (Q15370 whole entry partner): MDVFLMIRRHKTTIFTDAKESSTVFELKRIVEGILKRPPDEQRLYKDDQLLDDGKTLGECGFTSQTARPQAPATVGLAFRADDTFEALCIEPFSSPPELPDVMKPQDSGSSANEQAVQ
T3 sequence (P10275 whole entry T878A): as the sequence (P10275 whole entry T878A) above
T3 sequence (P40337 whole entry): as the sequence (P40337 whole entry) above
T3 sequence (Q15369 whole entry partner): as the sequence (Q15369 whole entry partner) above
T3 sequence (Q15370 whole entry partner): as the sequence (Q15370 whole entry partner) above

What is called Dmax is the largest share of the target that was removed. A word on the DC50: it is the midpoint of the concentration-degradation curve. What is called Cmax is the maximum level reached in the sampled fluid or tissue. Regarding `Cc1ncsc1-c1ccc(CNC(=O)[C@@H]2C[C@@H](O)CN2C(=O)[C@@H](NC(=O)COCCCOCCCCCOc2ccc(N3C(=S)N(c4ccc(C#N)c(C(F)(F)F)c4)C(=O)C3(C)C)cc2)C(C)(C)C)cc1` [Example 1, (2S,4R)-1-((S)-2-(2-(3-(5-(4-(3-(4-cyano-3-(trifluoromethyl)phenyl)-5,5-dimethyl-4-oxo-2-thioxoimidazolidin-1-yl)phenoxy)pentyloxy)propoxy)acetamido)-3,3-dimethylbutanoyl)-4-hydroxy-N-(4-(4-methylthiazol-5-yl)benzyl)pyrrolidine-2-carboxamide], the Dmax in series [1] is 51 to 70%; in series [2] (highest percentage of Androgen Receptor degradation observed), greater than 71%. The DC50 in series [1] (VCaP cells) and in series [2] (concentration that caused 50% Androgen Receptor degradation) was less than 50 nM each time. Moreover, the “proliferation / agonist activity in LNCaP F876L cells” value in series [3] is recorded as “did not exhibit agonist activity; also recorded: Anti-proliferation in LNCaP F876L cells observed”. For the same compound, in series [4] (24 hours, 10 uM compound B), the “AR degradation activity in the presence of VHL E3 ligase ligand compound B” value is “greatly diminishes the AR degradation activity”. Further, in series [4] (PROTAC versus inactive epimer analog unable to bind VHL E3 ligase), the “degradation of AR” value is “significant degradation of AR”. In addition, the AUC(0-t) in series [5] (read-out: Plasma Exposure AUC0-24) is 15600 ng·h/mL. Besides, the Cmax in series [5] (read-out: Plasma Exposure Cmax) was 1150 ng/mL.

For the compound `Cc1ncsc1-c1ccc(CNC(=O)[C@@H]2C[C@@H](O)CN2C(=O)[C@@H](NC(=O)COCCCCOc2ccc(C(=O)N[C@H]3C(C)(C)[C@H](Oc4ccc(C#N)c(Cl)c4)C3(C)C)cc2)C(C)(C)C)cc1` [Example 163, (2S,4R)-1-[(2S)-3,3-dimethyl-2-{2-[4-(4-{[trans-3-(3-chloro-4-cyanophenoxy)-2,2,4,4-tetramethylcyclobutyl]carbamoyl}phenoxy)butoxy]acetamido}butanoyl]-4-hydroxy-N-{[4-(4-methyl-1,3-thiazol-5-yl)phenyl]methyl}pyrrolidine-2-carboxamide], the Dmax in series [1] (highest percentage of Androgen Receptor degradation observed, VCaP cells (Table 32)) is greater than 71%. In addition, the DC50 in series [1] (VCaP cells (Table 32)) was less than 50 nM. Further, the GI50 in series [6] (Homo sapiens, VCaP cells, 0.1 nM R1881, Table 37, read-out: GI50, Inhibition of VCaP Proliferation) is no more than 50 nM. Besides, in series [7], the “prostate weights (prostate involution)” value is “significant reduction in prostate weights; also recorded: significant prostate involution”. In addition, the Tumor growth inhibition entry in series [8] is reported as “Tumor growth inhibition was observed”.

Consider `CNC(=O)c1ccc(N2C(=S)N(c3ccc(C#N)c(C(F)(F)F)c3)C(=O)C2(C)C)cc1F` [enzalutamide, reference compound], for which the anti-proliferative activity entry in series [6] (LNCap and VCaP cell systems, increasing concentrations of AR agonist R1881 and cells containing the AR F876L mutation) is “inactive”. Further, in series [8], the Tumor growth inhibition result is “Tumor growth inhibition was observed”.
